From patent US12129237B2, “Substituted diaminocarboxamide and diaminocarbonitrile pyrimidines, compositions thereof, and methods of treatment therewith” (SIGNAL PHARMACEUTICALS, LLC, priority 2011, dated 2024)

target: T1, JNK1 (Homo sapiens, UniProt P45983); experiment: JNK1 biochemical assays (one or more of: time resolved fluorescence, Z'-LYTE Cascade, radioactive); details: Table 3; JNK1 IC50 activity level; read-out: Act. Level
T1 construct: purchased Carna Biosciences
T1 sequence (P45983 whole entry): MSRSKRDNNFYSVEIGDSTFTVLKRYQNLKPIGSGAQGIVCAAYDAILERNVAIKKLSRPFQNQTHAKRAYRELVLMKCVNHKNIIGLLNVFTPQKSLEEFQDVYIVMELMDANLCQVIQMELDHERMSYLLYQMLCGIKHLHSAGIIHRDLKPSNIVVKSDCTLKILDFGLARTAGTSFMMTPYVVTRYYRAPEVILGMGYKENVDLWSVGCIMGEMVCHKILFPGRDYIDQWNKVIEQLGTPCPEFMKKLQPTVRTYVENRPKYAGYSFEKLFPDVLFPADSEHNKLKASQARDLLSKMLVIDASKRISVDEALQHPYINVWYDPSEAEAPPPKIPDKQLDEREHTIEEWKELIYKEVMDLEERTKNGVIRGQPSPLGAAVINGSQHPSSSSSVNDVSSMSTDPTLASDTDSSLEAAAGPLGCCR

SMILES	IC50 [nM]
CC(C)(C)Nc1ncc(C#N)c(N[C@@H]2CCCC[C@H](O)C2)n1 [Example C-38, 2-(tert-butylamino)-4-((1R,3S)-3-hydroxycycloheptylamino) pyrimidine-5-carbonitrile]	< 200
CCO[C@H]1CC[C@H](Nc2ncc(C#N)c(N[C@@H]3CCOC3)n2)CC1 [Example C-39, 2-((1r,4R)-4-ethoxycyclohexylamino)-4-((R)-tetrahydrofuran-3-ylamino)pyrimidine-5-carbonitrile]	1000 to 10000
CCO[C@H]1CC[C@H](Nc2ncc(C#N)c(N[C@@H]3CC[C@@H](C)[C@H](O)C3)n2)CC1 [Example C-41, 2-((1r,4R)-4-ethoxycyclohexylamino)-4-((1R,3R,4R)-3-hydroxy-4-methylcyclohexylamino) pyrimidine-5-carbonitrile]	< 200
CN(C)C(=O)[C@H]1CC[C@H](Nc2ncc(C#N)c(N[C@@H]3CCC[C@](C)(O)C3)n2)CC1 [Example C-43, (1R,4r)-4-(5-cyano-4-((1R,3S)-3-hydroxy-3-methylcyclohexylamino)pyrimidin-2-ylamino)-N,N-dimethylcyclohexanecarboxamide]	< 200
CO[C@H]1CC[C@H](Nc2ncc(C#N)c(N[C@@H]3CC[C@@H](C)C(O)C3)n2)CC1 (stereo partly drawn) [Example C-46, 4-((1R,3R,4R)-3-hydroxy-4-methylcyclohexylamino)-2-((1r,4R)-4-methoxycyclohexylamino) pyrimidine-5-carbonitrile]	< 200
C[C@@H]1CC[C@@H](Nc2nc(N[C@H]3CC[C@H](C(=O)N(C)C)CC3)ncc2C#N)C[C@H]1O [Example C-47, (1R,4r)-4-(5-cyano-4-((1R,3R,4R)-3-hydroxy-4-methylcyclohexylamino)pyrimidin-2-ylamino)-N,N-dimethylcyclohexanecarboxamid]	< 200
CO[C@H]1CC[C@H](Nc2ncc(C#N)c(N[C@@H]3CCCC[C@](C)(O)C3)n2)CC1 [Example C-50, 4-((1R,3S)-3-hydroxy-3-methylcycloheptylamino)-2-((1r,4R)-4-methoxycyclohexylamino) pyrimidine-5-carbonitrile]	200 to 800
CO[C@H]1CC[C@H](Nc2ncc(C#N)c(N[C@H]3CCCC[C@@](C)(O)C3)n2)CC1 [Example C-52, 4-((1S,3R)-3-hydroxy-3-methylcycloheptylamino)-2-((1r,4S)-4-methoxycyclohexylamino) pyrimidine-5-carbonitrile]	< 200
CC(C)CNc1nc(N[C@H]2CC[C@H](O)CC2)ncc1C#N [Example C-55, 2-((1r,4r)-4-hydroxycyclohexylamino)-4-(isobutylamino)pyrimidine-5-carbonitrile]	1000 to 10000
CC(C)CCNc1nc(N[C@H]2CC[C@H](O)CC2)ncc1C#N [Example C-60, 2-((1r,4r)-4-hydroxycyclohexylamino)-4-(isopentylamino)pyrimidine-5-carbonitrile]	1000 to 10000
N#Cc1cnc(N[C@H]2CC[C@H](O)CC2)nc1NC12CC(C1)C2 [Example C-61, 4-(bicyclo[1.1.1]pentan-1-ylamino)-2-((1r,4r)-4-hydroxycyclohexylamino) pyrimidine-5-carbonitrile]	200 to 800
N#Cc1cnc(NC2CCC(F)(F)CC2)nc1N[C@@H]1CCC[C@@H]1CO [Example C-64, 2-(4,4-difluorocyclohexylamino)-4-((1R,2S)-2-(hydroxymethyl)cyclopentylamino) pyrimidine-5-carbonitrile]	200 to 800
C[C@@H]1CC[C@@H](Nc2nc(NC3CCC3)ncc2C#N)C[C@H]1O [Example C-65, 2-(cyclobutylamino)-4-((1R,3R,4R)-3-hydroxy-4-methylcyclohexylamino) pyrimidine-5-carbonitrile]	< 200

The next lines start with the values.

IC50 [nM]	SMILES
< 200	N#Cc1cnc(N[C@H]2CC[C@H](O)CC2)nc1N[C@@H]1CCCC[C@H](O)C1 [Example C-36]
200 to 800	CCO[C@H]1CC[C@H](Nc2ncc(C#N)c(N[C@H]3CCOC3)n2)CC1 [Example C-37, 2-((1r,4S)-4-ethoxycyclohexylamino)-4-((S)-tetrahydrofuran-3-ylamino)pyrimidine-5-carbonitrile]
< 200	C[C@]1(O)CCC[C@@H](Nc2nc(N[C@H]3CC[C@H](OCC(F)(F)F)CC3)ncc2C#N)C1 [Example C-40]
< 200	CO[C@H]1CC[C@H](Nc2ncc(C#N)c(N[C@@H]3CCCC[C@@H](O)C3)n2)CC1 [Example C-42, 4-((1R,3R)-3-hydroxycycloheptylamino)-2-((1r,4R)-4-methoxycyclohexylamino) pyrimidine-5-carbonitrile]
< 200	C[C@]1(O)CCC[C@@H](Nc2nc(N[C@H]3CC[C@H](OC(F)F)CC3)ncc2C#N)C1 [Example C-44, 2-((1r,4R)-4-(difluoromethoxy)cyclohexylamino)-4-((1R,3S)-3-hydroxy-3-methylcyclohexylamino) pyrimidine-5-carbonitrile]
< 200	CN(C)C(=O)[C@H]1CC[C@H](Nc2ncc(C#N)c(N[C@@H]3CCCC[C@H](O)C3)n2)CC1 [Example C-45, (1R,4r)-4-(5-cyano-4-((1R,3S)-3-hydroxycycloheptylamino)pyrimidin-2-ylamino)-N,N-dimethylcyclohexanecarboxamide]
< 200	C[C@@H]1CC[C@@H](Nc2nc(N[C@H]3CC[C@H](O)CC3)ncc2C#N)C[C@H]1O [Example C-48, 4-((1R,3R,4R)-3-hydroxy-4-methylcyclohexylamino)-2-((1r,4R)-4-hydroxycyclohexylamino) pyrimidine-5-carbonitrile]
< 200	C[C@@H]1CC[C@@H](Nc2nc(N[C@H]3CC[C@H](OCC(F)(F)F)CC3)ncc2C#N)C[C@H]1O [Example C-49]
1000 to 10000	CO[C@H]1CC[C@H](Nc2ncc(C#N)c(N[C@H]3CCCC[C@](C)(O)C3)n2)CC1 [Example C-51, 4-((1S,3S)-3-hydroxy-3-methylcycloheptylamino)-2-((1r,4S)-4-methoxycyclohexylamino) pyrimidine-5-carbonitrile]
< 200	CO[C@H]1CC[C@H](Nc2ncc(C#N)c(N[C@@H]3CCCC[C@@](C)(O)C3)n2)CC1 [Example C-53, 4-((1R,3R)-3-hydroxy-3-methylcycloheptylamino)-2-((1r,4R)-4-methoxycyclohexylamino) pyrmidine-5-carbonitrile]
200 to 800	CN(C)C(=O)[C@H]1CC[C@H](Nc2ncc(C#N)c(N[C@@H]3CCCOC3)n2)CC1 [Example C-54, (1R,4r)-4-(5-cyano-4-((R)-tetrahydro-2H-pyran-3-ylamino)pyrimidin-2-ylamino)-N,N-dimethylcyclohexanecarboxamide]
< 200	[2H]C([2H])([2H])O[C@H]1CC[C@H](Nc2ncc(C#N)c(N[C@@H]3CCC[C@](C)(O)C3)n2)CC1 [Example C-56, 4-((1R,3S)-3-hydroxy-3-methylcyclohexylamino)-2-((1r,4R)-4-((^2H3)methyloxy)cyclohexyl-amino)pyrimidine-5-carbonitrile]
200 to 800	CO[C@H]1CC[C@](C)(Nc2ncc(C#N)c(N[C@@H]3CCC[C@H](O)C3)n2)CC1 [Example C-57, 4-((1R,3S)-3-hydroxycyclohexylamino)-2-((1r,4R)-4-methoxy-1-methylcyclohexylamino) pyrimidine-5-carbonitrile]
1000 to 10000	N#Cc1cnc(N[C@H]2CC[C@H](O)CC2)nc1NC1CC(F)(F)C1 [Example C-58, 4-(3,3-difluorocyclobutylamino)-2-((1r,4r)-4-hydroxycyclohexylamino) pyrimidine-5-carbonitrile]
200 to 800	CC(C)(C)Nc1ncc(C#N)c(N[C@@H]2CCC[C@](C)(O)C2)n1 [Example C-59, 2-(tert-butylamino)-4-((1R,3S)-3-hydroxy-3-methylcyclohexylamino) pyrimidine-5-carbonitrile]
< 200	CCC(C)(C)Nc1nc(N[C@H]2CC[C@H](O)CC2)ncc1C#N [Example C-62, 2-((1r,4r)-4-hydroxycyclohexylamino)-4-(tert-pentylamino)pyrimidine-5-carbonitrile]
200 to 800	CC(C)(C)Nc1ncc(C#N)c(NC(C)(C)C)n1 [Example C-63, 2,4-bis(tert-butylamino)pyrimidine-5-carbonitrile]
